Assays:
Assay type in all cases: in vivo, SD rats (Sprague-Dawley rats)
[1] = system: SD rats with a high cholesterol diet (hyperlipidemia model); assay: Measurement of blood lipid in high cholesterol diet SD rats; details: Ex. compositions 1000 mg/kg/day, atorvastatin 5 mg/kg/day
Description: 6-Week-old male SD rats (Sprague-Dawley rats, body weight 180-220 g) were purchased from BioLink (Eumseong, Republic of Korea) and acclimated for a week. […] Drinking water was freely supplied. A room temperature of 22.0+/−2.0° C., a relative humidity of 50.0+/−10.0%, an illumination time of 12 hours (08:00 to 20:00), and an illuminance of 150 to 300 lux were set.
At the end of the experiment, each group was sacrificed after fasting for 12 hours. Their blood was collected from the posterior vena cava and transferred to an EDTA tube to separate the plasma. In the separated plasma, total cholesterol (TC), LDL cholesterol (LDL-c), HDL cholesterol (HDL-c) and triglycerides (TG) were measured using a biochemical kit (Asan Pharmaceutical Co., Ltd., Seoul, Republic of Korea).
The atherogenic index (AI) was calculated by the following equation (1) according to a method of Haulund et al. and the cardiac risk factor (CRF) was calculated by the following equation (2). Atherogenic Index(AI)=[(TC)−(HDL-c)]/[(HDL-c)] (1) Cardiac Risk Factor(CRF)=(TC)/(HDL-c) (2)

[2] = system: SD rats with a high cholesterol diet (hyperlipidemia model); assay: Lipid analysis of liver tissue in high cholesterol diet SD rats; details: liver lipid extract, oral, Ex. compositions 1,000 mg/kg, atorvastatin 5 mg/kg
Description: (§1) 6-Week-old male SD rats (Sprague-Dawley rats, body weight 180-220 g) were purchased from BioLink (Eumseong, Republic of Korea) and acclimated for a week. They were formed into groups of five rats as described in Table 2 below, and solid feed (Rodent NIH031 Open Formula Auto, Zeigler Bros., USA) and a high cholesterol diet (D12451 with 1.25% cholesterol, Research Diets Inc., USA) were freely fed. Drinking water was freely supplied. A room temperature of 22.0+/−2.0° C., a relative humidity of 50.0+/−10.0%, an illumination time of 12 hours (08:00 to 20:00), and an illuminance of 150 to 300 lux were set.
The total lipids in the liver were homogenized and then extracted using a Folch method. The extracted lipids were dissolved in an isopropanol solution, and then with the SPECTROstar Nano (BMG Labtech, Germany), total cholesterol and triglycerides in […] were colorimetrically quantified at 500 nm and 550 nm, respectively, using an enzyme reagent kit (Asan Pharmaceutical Co., Ltd., Seoul, Republic of Korea).

[3] = system: SD rats with a high cholesterol diet (hyperlipidemia model); assay: Measurement of body weight and liver weight, visual inspection of liver tissue; details: oral, 4 weeks, Ex. compositions 1,000 mg/kg, atorvastatin 5 mg/kg, mean of five rats
Description: as §1
The body weight before drug administration and the body weight after the end of the experiment were measured. The liver weight was measured by weighing the liver extracted after lethal bleeding on the day of autopsy, and visual inspection of liver tissue was performed.

## CC(C)c1c(C(=O)Nc2ccccc2)c(-c2ccccc2)c(-c2ccc(F)cc2)n1CC[C@@H](O)C[C@@H](O)CC(=O)O [Atorvastatin]
[1]; (TC)/(HDL-c)
  Cardiac Risk Factor (CRF): 2.6
[1]
  LDL/HDL: 0.9
[2]
  Hepatic total cholesterol concentration: 146 mg/dL
  Hepatic triglyceride concentration: 197 mg/dL
[3]
  Body weight: 571.6 g
  Liver weight: 24.5 g
  Liver weight/Body weight: 4.26%

— US10543246B2, “Composition for preventing or treating hyperlipidemia” (HAWON PHARM. CORPORATION, priority 2014, dated 2020)
